In US20200325178A1, “PEPTIDE NUCLEIC ACID MOLECULES FOR TREATMENT OF GRAM POSITIVE BACTERIAL INFECTION” (priority 2017, published 2020):

Assays:
[1] = Single ascending intravenous dose tolerability (MTD) in mice; format: in vivo; details: 10 mg/kg single intravenous bolus dose
Description: Single ascending intravenous (IV) dose study was performed to determine tolerability of the drug in mice.
Initially, Compound I-HCl and Compound IV-HCl were administered with a 10 mg/kg intravenous bolus dose using a 10 mL/kg dose volume (0.2 mL) and observed the effects before proceeding to the next higher dose. […] However, higher concentration (>15 mg/kg) had shown adverse effect and death in mice within 30 mins of administration of the drug.

S. aureus MSSA strains = assay: Bioscreen-C dose response growth curve of MSSA over 24 hours; format: cell-based, Staphylococcus aureus; details: HCl salts, doses from 100 μg downwards, 10 mM sodium bicarbonate buffer pH-7.4, OD 420-580 nm
Description: Bioscreen-C instrument was used to detect the MIC and MBC of PNA-CPP derivatives against S. aureus MSSA strains. Different concentrations of PNA-CPP derivatives were prepared in 10 mM of sodium bicarbonate buffer pH-7.4 and added to ˜5.0 Log 10 CFUs in a Honey comb Bioscreen-C plate.
Compound I-V were assayed against MSSA. FIG. 12-16 show a dose response growth curve of MSSA in presence of increasing concentrations of Compound I-HCl (FIG. 12), Compound II-HCl (FIG. 13), Compound III-HCl (FIG. 14), Compound IV-HCl (FIG. 15), and Compound V-HCl (FIG. 16), determined in a Bioscreen-C spectrophotometer.

MRSA = assay: In vitro assay of emergence of resistance, MRSA, 8 days; format: cell-based, S. aureus; details: 6.25 μg (twice MBC) in one ml Mueller Hinton broth, 37° C., through Day 8
Description: (§1) To determine the development of resistance in MRSA and MSSA strains against Compound I-HCl and Compound IV-HCl, an in vitro assay was performed. Twice the amount of MBC of Compound I-HCl (6.25 μg) and Compound IV-HCl (6.25 μg) were mixed with ˜5.0 log 10 CFUs in one ml of Mueller Hinton broth and incubated for 8 days at 37° C. Eight tubes of culture were used for each drug and bacterial strains. At 24 hours of interval, culture tubes were centrifuged and spent media were replaced with fresh media in presence of Compound I-HCl and Compound IV-HCl and further incubated to observe the growth of S. aureus strains. At 24 hours interval, one set of culture tube exposed to drugs were selected and a fraction of the culture used to plate on agar plates to observe the reduction of CFU counts as compared to untreated control. The rest of the culture samples were allowed to grow without any drug for additional 24 hours to observe the growth of S. aureus strains. One set of culture tubes without drug was used as the positive control.

[2] = tested on: MRSA clinical isolates and ATCC strains; assay: MIC and MBC against MRSA clinical isolates and ATCC strains; format: cell-based, Staphylococcus aureus; design: unit not given here
Description: (§2) Bioscreen-C instrument was used to detect the MIC and MBC of PNA-CPP derivatives against S. aureus MRSA strains. Different concentration of PNA-CPP derivatives were prepared in 10 mM of sodium bicarbonate buffer pH-7.4 and added to ˜5.0 Log 10 CFUs in a Honey comb Bioscreen-C plate.
After the growth curve assays, the number of colony forming units (CFU) were counted to determine the MIC and MBC of each PNA-CPP derivative against MRSA.
Minimum inhibitory concentration (MIC) analyses were performed as described in Clinical and Laboratory Standards Institute, Methods for Dilution Antimicrobial Susceptibility Tests for Bacteria that Grow Aerobically, 7th ed.; Approved Standard M7-A7; CLSI: Wayne, Pa., USA, 2006; volume 26, No. 2. […] MIC was determined as the lowest concentration of agent that inhibits bacterial growth detected at A420-580 nm.

MSSA = assay: In vitro assay of emergence of resistance, MSSA, 8 days; format: cell-based, S. aureus; details: 6.25 μg (twice MBC) in one ml Mueller Hinton broth, 37° C., through Day 8
Description: as §1
The assays above were also performed using MSSA strains and Compounds I and IV.

[3] = tested on: S. aureus (ATCC BAA-1556); assay: Murine thigh infection model; format: in vivo; details: for Mean Log 10 CFU/Thigh / Mean Log 10 Change vs. 1 hr / Mean Log 10 Change vs. 24 hr (vehicle): neutropenic CD-1 mice, 10 mg/kg, 0.2 ml IV, 24 hrs
Description: Female 5-6 week old CD-1 (18-22 gm) were used in this study. Mice were quarantined for 48 hours before use and housed in groups of 5 with free access to food and water during the study.
The animals were made neutropenic by administration of cyclophosphamide on Days −4 and −1. On Days −4 150 mg/kg of cyclohsphamide administered by intraperitoneal route and 100 mg/kg was administered on Days −1. Days listed are referenced from the date of infection (study day-Day 0).
On Day 0, animals were inoculated intramuscularly (0.1 ml/thigh) with ˜1×10^5 CFU/mouse of S. aureus (ATCC BAA-1556) into right thigh. […] Group-3 of mice were administered with vancomycin at 25 mg/kg via subcutaneous route. Group-4 of mice administered with buffer and group-5 used as the inoculation control.
Mice were euthanized by CO2 inhalation and thighs were removed, and placed in 2 ml of sterile PBS, homogenized, serially diluted and plated to determine the CFU counts. Plates were incubated 18-24 hours and CFUs were counted.
Colony were counted and the number of colonies is converted to CFU/thigh by multiplying the number of colonies by the volume of the thigh homogenate spotted and the dilution at which the colonies were counted (5-50 colonies/spot). All count data were transformed into logo CFU/thigh for calculation of means and standard deviations.

S. aureus MRSA strains = assay: Bioscreen-C dose response growth curve of MRSA over 24 hours; format: cell-based, Staphylococcus aureus; details: HCl salts, doses from 100 μg downwards, 10 mM sodium bicarbonate buffer pH-7.4, OD 420-580 nm
Description: as §2
Compound I-V were assayed against MRSA. FIG. 6-10 show a dose response growth curve of MRSA in presence of increasing concentrations of Compound I-HCl (FIG. 6), Compound II-HCl (FIG. 7), Compound III-HCl (FIG. 8), Compound IV-HCl (FIG. 9), and Compound V-HCl (FIG. 10), determined in a Bioscreen-C spectrophotometer.

Compound I: PNA-CPP conjugate: PNA cgt cat acg cgg tcc (SEQ ID NO: 51), AEEA linker, CPP BXRXRRXRRXRRXR; FIG. 1 (CGTCATACGCGGTCC; all peptide nucleic acid (PNA); cell-penetrating peptide attached via AEEA linker, further chemistry not fully specified)
tolerability in mice [1]: well tolerated | lowest dose at which no MSSA growth was observed (growth curve) (S. aureus MSSA strains): 3.13 µg | MRSA CFU counts and emergence of resistant strains (MRSA): reduced MRSA CFUs without emergence of resistant strains | MBC ([2]; isolate MRSA#1): 1.56 | MIC ([2]; isolate MRSA#1): 0.78 | MBC ([2]; isolate MRSA#3): 3.25 | MIC ([2]; isolate MRSA#3): 1.56 | MBC ([2]; isolate MRSA#6): 1.56/1.56 | MIC ([2]; isolate MRSA#6): 1.56/1.56 | MBC ([2]; isolate MRSA#15): 3.25/3.25 | MIC ([2]; isolate MRSA#15): 3.25/3.25 | MBC ([2]; isolate MRSA#28): 3.25/3.25 | MIC ([2]; isolate MRSA#28): 3.25/3.25 | MBC ([2]; isolate MRSA#31): 3.25/3.25 | MIC ([2]; isolate MRSA#31): 3.25/3.25 | MBC ([2]; isolate MRSA#37): 3.25 | MIC ([2]; isolate MRSA#37): 1.56 | MBC ([2]; isolate MRSA#39): 3.25/3.25 | MIC ([2]; isolate MRSA#39): 3.25/3.25 | MBC ([2]; isolate MRSA#42): 1.56/1.56 | MIC ([2]; isolate MRSA#42): 1.56/1.56 | MBC ([2]; isolate MRSA#43): 3.25 | MIC ([2]; isolate MRSA#43): 1.56 | MBC ([2]; strain USA 300): 3.25 | MIC ([2]; strain USA 300): 1.56 | MSSA CFU counts and emergence of resistant strains (MSSA): reduced MSSA CFUs without emergence of resistant strains | reduction in CFU counts compared to Vancomycin positive control treatment ([3]; administered at 1 and 13 hours or at 1, 9, and 17 hours): comparable or improved reduction in CFU counts | Mean Log 10 CFU/Thigh ([3]; +1 & 13 hrs): 4.46 Log 10 CFU/Thigh | Mean Log 10 Change vs. 1 hr ([3]; +1 & 13 hrs): −1.16 Log 10 | Mean Log 10 Change vs. 24 hr (vehicle) ([3]; +1 & 13 hrs): −4.07 Log 10 | Mean Log 10 CFU/Thigh ([3]; +1, +9, & +17 hrs): 3.46 Log 10 CFU/Thigh | Mean Log 10 Change vs. 1 hr ([3]; +1, +9, & +17 hrs): −2.16 Log 10 | Mean Log 10 Change vs. 24 hr (vehicle) ([3]; +1, +9, & +17 hrs): −5.07 Log 10 | lowest dose at which no MRSA growth was observed (growth curve) (S. aureus MRSA strains): 3.13 µg
